Columns and labels:
Assay type in all cases: in vivo
[1] = test system: ryegrass, Italian (Italian ryegrass, Lolium multiflorum); assay: Test A preemergence; conditions: Lolium multiflorum, pre-emergence, 240 h, 0 to 100 scale where 0 is no effect and 100 is complete control, read-out: Ryegrass, Italian plant response rating; for pest or weed control at 31 g/ha: 31 g ai/ha, Preemergence; for pest or weed control at 125 g/ha: 125 g ai/ha, preemergence, approx. 10 d
Method in brief: (§1)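 Preemergence directed soil spray on seeded pots, or postemergence application to plants 2–10 cm, one- to two-leaf. Solvent mixture non-phytotoxic, with surfactant. Scored ~10 d later, visually, 0–100 vs untreated.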

[2] = test system: Kochia (Kochia scoparia); assay: Test A preemergence; conditions: Bassia scoparia, pre-emergence, 240 h, 0 to 100 scale where 0 is no effect and 100 is complete control, read-out: Kochia plant response rating; for pest or weed control at 31 g/ha: 31 g ai/ha, Preemergence; for pest or weed control at 125 g/ha: 125 g ai/ha, preemergence, approx. 10 d
Method in brief: as §1

[3] = test system: barnyardgrass (Echinochloa crus-galli); assay: Test A preemergence; conditions: Echinochloa crus-galli, pre-emergence, 240 h, Preemergence; for pest or weed control at 31 g/ha: 31 g ai/ha, 0 to 100 scale where 0 is no effect and 100 is complete control, read-out: Barnyardgrass plant response rating; for pest or weed control at 125 g/ha: 125 g ai/ha, visual injury rating after approximately 10 d, read-out: Barnyardgrass plant response rating (0 to 100 scale, 0 is no effect, 100 is complete control)
Method in brief: as §1

[4] = test system: ragweed (common ragweed, Ambrosia elatior); assay: Test A preemergence; conditions: Ambrosia artemisiifolia, pre-emergence, 240 h, 0 to 100 scale where 0 is no effect and 100 is complete control, read-out: Ragweed plant response rating; for pest or weed control at 31 g/ha: 31 g ai/ha, Preemergence; for pest or weed control at 125 g/ha: 125 g ai/ha, preemergence, approx. 10 d
Method in brief: as §1

[5] = test system: pigweed (Amaranthus retroflexus); assay: Test A preemergence; conditions: Amaranthus retroflexus, pre-emergence, 240 h, 0 to 100 scale where 0 is no effect and 100 is complete control, read-out: Pigweed plant response rating; for pest or weed control at 31 g/ha: 31 g ai/ha, Preemergence; for pest or weed control at 125 g/ha: 125 g ai/ha, preemergence, approx. 10 d
[6] = test system: ryegrass, Italian (Italian ryegrass, Lolium multiflorum); assay: Test A postemergence; conditions: Lolium multiflorum, post-emergence, 240 h; for pest or weed control at 125 g/ha: 125 g ai/ha, postemergence, visual injury on 0 to 100 scale (0 no effect, 100 complete control), approx. 10 d, read-out: Ryegrass, Italian plant response rating; for pest or weed control at 31 g/ha: Postemergence, 31 g ai/ha, visual injury after approx. 10 d, 0 to 100 scale, 0 no effect, 100 complete control, read-out: Plant response rating, Ryegrass, Italian
Method in brief: as §1

[7] = test system: blackgrass (Alopecurus myosuroides); assay: Test A postemergence; conditions: Alopecurus myosuroides, post-emergence, 240 h; for pest or weed control at 125 g/ha: 125 g ai/ha, postemergence, visual injury on 0 to 100 scale (0 no effect, 100 complete control), approx. 10 d, read-out: Blackgrass plant response rating; for pest or weed control at 31 g/ha: Postemergence, 31 g ai/ha, visual injury after approx. 10 d, 0 to 100 scale, 0 no effect, 100 complete control, read-out: Plant response rating, Blackgrass
Method in brief: as §1

[8] = test system: Kochia (Kochia scoparia); assay: Test A postemergence; conditions: Bassia scoparia, post-emergence, 240 h; for pest or weed control at 125 g/ha: 125 g ai/ha, postemergence, visual injury on 0 to 100 scale (0 no effect, 100 complete control), approx. 10 d, read-out: Kochia plant response rating; for pest or weed control at 31 g/ha: Postemergence, 31 g ai/ha, visual injury after approx. 10 d, 0 to 100 scale, 0 no effect, 100 complete control, read-out: Plant response rating, Kochia
Method in brief: as §1

[9] = test system: corn (Zea mays); assay: Test A postemergence; conditions: Zea mays, post-emergence, 240 h; for plant injury at 125 g/ha: 125 g ai/ha, postemergence, visual injury on 0 to 100 scale (0 no effect, 100 complete control), approx. 10 d, read-out: Corn plant response rating; for Corn plant response rating (crop injury, 0 = no effect, 100 = complete kill) at 31 g/ha: Postemergence, 31 g ai/ha, visual injury after approx. 10 d, 0 to 100 scale, 100 complete control
Method in brief: as §1

[10] = test system: Galium (catchweed bedstraw, Galium aparine); assay: Test A postemergence; conditions: Galium, post-emergence, 240 h; for pest or weed control at 125 g/ha: 125 g ai/ha, postemergence, visual injury on 0 to 100 scale (0 no effect, 100 complete control), approx. 10 d, read-out: Galium plant response rating; for pest or weed control at 31 g/ha: Postemergence, 31 g ai/ha, visual injury after approx. 10 d, 0 to 100 scale, 0 no effect, 100 complete control, read-out: Plant response rating, Galium
Method in brief: as §1

[11] = test system: barnyardgrass (Echinochloa crus-galli); assay: Test A postemergence; conditions: Echinochloa crus-galli, post-emergence, 240 h; for pest or weed control at 125 g/ha: 125 g ai/ha, postemergence, visual injury on 0 to 100 scale (0 no effect, 100 complete control), approx. 10 d, read-out: Barnyardgrass plant response rating; for pest or weed control at 31 g/ha: Postemergence, 31 g ai/ha, visual injury after approx. 10 d, 0 to 100 scale, 0 no effect, 100 complete control, read-out: Plant response rating, Barnyardgrass
Method in brief: as §1

[12] = test system: giant foxtail (Setaria faberii); assay: Test A postemergence; conditions: Setaria faberi, post-emergence, 240 h; for pest or weed control at 125 g/ha: 125 g ai/ha, postemergence, visual injury on 0 to 100 scale (0 no effect, 100 complete control), approx. 10 d, read-out: Foxtail, Giant plant response rating; for pest or weed control at 31 g/ha: Postemergence, 31 g ai/ha, visual injury after approx. 10 d, 0 to 100 scale, 0 no effect, 100 complete control, read-out: Plant response rating, Foxtail, Giant
Method in brief: as §1

[13] = test system: ragweed (common ragweed, Ambrosia elatior); assay: Test A postemergence; conditions: Ambrosia artemisiifolia, post-emergence, 240 h; for pest or weed control at 125 g/ha: 125 g ai/ha, postemergence, visual injury on 0 to 100 scale (0 no effect, 100 complete control), approx. 10 d, read-out: Ragweed plant response rating; for pest or weed control at 31 g/ha: Postemergence, 31 g ai/ha, visual injury after approx. 10 d, 0 to 100 scale, 0 no effect, 100 complete control, read-out: Plant response rating, Ragweed
Method in brief: as §1

[14] = test system: wheat (Triticum aestivum); assay: Test A postemergence; conditions: Triticum aestivum, post-emergence, 240 h; for plant injury at 125 g/ha: 125 g ai/ha, postemergence, visual injury on 0 to 100 scale (0 no effect, 100 complete control), approx. 10 d, read-out: Wheat plant response rating; for plant injury at 31 g/ha: Postemergence, 31 g ai/ha, visual injury after approx. 10 d, 0 to 100 scale, 0 no effect, 100 complete control, read-out: Plant response rating, Wheat
Method in brief: as §1

[15] = test system: pigweed (Amaranthus retroflexus); assay: Test A postemergence; conditions: Amaranthus retroflexus, post-emergence, 240 h; for pest or weed control at 125 g/ha: 125 g ai/ha, postemergence, visual injury on 0 to 100 scale (0 no effect, 100 complete control), approx. 10 d, read-out: Pigweed plant response rating; for pest or weed control at 31 g/ha: Postemergence, 31 g ai/ha, visual injury after approx. 10 d, 0 to 100 scale, 0 no effect, 100 complete control, read-out: Plant response rating, Pigweed
Method in brief: as §1

`COc1cccc([C@H]2CN(C)C(=O)[C@@H]2C(=O)Nc2ccc(F)c(F)c2F)c1` [Compound 1063] was tested, and the pest or weed control at 31 g/ha [1] was 0%, the pest or weed control at 125 g/ha [1] was 0% and the pest or weed control at 31 g/ha [2] was 10%. The pest or weed control at 125 g/ha [2] was 20%, the pest or weed control at 31 g/ha [3] was 100% and the pest or weed control at 125 g/ha [3] was 100%. For the same molecule, the pest or weed control at 31 g/ha [4] was 0%, the pest or weed control at 125 g/ha [4] was 30% and the pest or weed control at 31 g/ha [5] was 0%. The pest or weed control at 125 g/ha [5] was 0%, the pest or weed control at 125 g/ha [6] was 30% and the pest or weed control at 31 g/ha [6] was 0%. For the same molecule, the pest or weed control at 125 g/ha [7] was 30%, the pest or weed control at 31 g/ha [7] was 20% and the pest or weed control at 125 g/ha [8] was 0%. For the same molecule, the pest or weed control at 31 g/ha [8] was 0%, the plant injury at 125 g/ha [9] was 50% and the Corn plant response rating (crop injury, 0 = no effect, 100 = complete kill) at 31 g/ha [9] was 0%. For the same molecule, the pest or weed control at 125 g/ha [10] was 50%, the pest or weed control at 31 g/ha [10] was 30% and the pest or weed control at 125 g/ha [11] was 90%. It also gave a pest or weed control at 31 g/ha [11] of 70%, a pest or weed control at 125 g/ha [12] of 90% and a pest or weed control at 31 g/ha [12] of 80%. The pest or weed control at 125 g/ha [13] was 0%, the pest or weed control at 31 g/ha [13] was 0% and the plant injury at 125 g/ha [14] was 40%. The plant injury at 31 g/ha [14] was 0%, the pest or weed control at 125 g/ha [15] was 20% and the pest or weed control at 31 g/ha [15] was 0%.

`COc1cccc([C@H]2CN(C)C(=O)[C@@H]2C(=O)Nc2cccc(F)c2F)c1` [Compound 1062] was tested, and the pest or weed control at 31 g/ha [1] was 10%, the pest or weed control at 125 g/ha [1] was 20% and the pest or weed control at 31 g/ha [2] was 0%. The pest or weed control at 125 g/ha [2] was 20%, the pest or weed control at 31 g/ha [3] was 100% and the pest or weed control at 125 g/ha [3] was 100%. The pest or weed control at 31 g/ha [4] was 70%, the pest or weed control at 125 g/ha [4] was 0% and the pest or weed control at 31 g/ha [5] was 0%. For the same molecule, the pest or weed control at 125 g/ha [5] was 0%, the pest or weed control at 125 g/ha [6] was 20% and the pest or weed control at 31 g/ha [6] was 0%. For the same molecule, the pest or weed control at 125 g/ha [7] was 30%, the pest or weed control at 31 g/ha [7] was 0% and the pest or weed control at 125 g/ha [8] was 0%. It also gave a pest or weed control at 31 g/ha [8] of 0%, a plant injury at 125 g/ha [9] of 0% and a Corn plant response rating (crop injury, 0 = no effect, 100 = complete kill) at 31 g/ha [9] of 0%. The pest or weed control at 125 g/ha [10] was 50%, the pest or weed control at 31 g/ha [10] was 0% and the pest or weed control at 125 g/ha [11] was 90%. For the same molecule, the pest or weed control at 31 g/ha [11] was 70%, the pest or weed control at 125 g/ha [12] was 90% and the pest or weed control at 31 g/ha [12] was 90%. For the same molecule, the pest or weed control at 125 g/ha [13] was 30%, the pest or weed control at 31 g/ha [13] was 30% and the plant injury at 125 g/ha [14] was 30%. It also gave a plant injury at 31 g/ha [14] of 0%, a pest or weed control at 125 g/ha [15] of 0% and a pest or weed control at 31 g/ha [15] of 0%.

Source: patent publication US12077503B2, “Substituted cyclic amides and their use as herbicides” (FMC CORPORATION, priority 2015, dated 2024)
